In patent publication US10517889B2, “Modulators of SMAD7 expression” (Ionis Pharmaceuticals, Inc., priority 2017, dated 2019):

Experiments:
[1] = Body and organ weights after oral gavage in CD-1 mice (Example 7); format: in vivo; conditions: 500 mg/kg oral gavage once daily for 4 weeks, end of study
Procedure: Groups of 7-8 week old male CD-1 mice were given an oral gavage dose once daily for 4 weeks of 500 mg/kg of Ionis SMAD7 oligonucleotides. Each group contained 8 mice. One group of male CD-1 mice was administered saline by oral gavage daily.
Final body weights were measured at the end of the study. There was no significant difference in the body weight of the mice treated with antisense oligonucleotide compared to the control.
None of the Ionis SMAD7 oligonucleotides caused any changes in organ weights outside the expected range for antisense oligonucleotides.

[2] = Hematology assays after subcutaneous administration in beagle dogs (Example 8); format: in vivo; conditions: 30 mg/kg subcutaneous days 1, 3, 5, 8, 15, 22, 29
Procedure: (§1) There were 4 animals per group.
Blood samples were collected from the cephalic vein or saphenous vein of each animal. About 0.5 mL of blood samples was put into tubes containing the potassium salt of EDTA. Blood obtained from all dog groups was measured using an ADVIA2120i hematology analyzer for measurements of the various blood cells, as well as other hematology markers.

[3] = test system: dog SMAD7 mRNA; assay: Pharmacology: dog SMAD7 mRNA expression in liver, kidney, duodenum, ileum and colon after subcutaneous administration in beagle dogs (Example 8); format: in vivo; conditions: 30 mg/kg subcutaneous, necropsy, normalized to HPRT1
Procedure: as §1
The pharmacological activity of the Ionis oligonucleotides in dogs was assessed by measuring dog SMAD7 mRNA expression in liver, kidney, duodenum, ileum, and colon at necropsy. All the human ASOs used are complementary to dog SMAD7 mRNA.
Tissue samples from all dogs were analyzed for SMAD7 mRNA expression using the primer probe set RTS34649 (forward sequence […], designated SEQ ID NO: 2740; reverse sequence […], designated SEQ ID NO: 2741; probe sequence […], designated SEQ ID NO: 2742), which was normalized to mRNA levels of the housekeeping gene, HPRT1. One-way ANOVA with Dunnet's comparison test was used for statistical analysis.

[4] = test system: human SMAD7 mRNA; assay: Antisense inhibition of human SMAD7 mRNA expression in Hep3B cells by 3-10-3 cEt gapmers, 10,000 nM, electroporation (Example 2); format: cell-based; conditions: approximately 24 hours
Procedure, shortened: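 SMAD7 mRNA was measured by real-time PCR (RTS5062) with RiboGreen total-RNA normalization, about 24 h after 10,000 nM gapmer was delivered by electroporation into Hep3B cells at 20,000 per well. Gapmers were 16-mer 3-10-3 cEt, fully phosphorothioate; values are % inhibition versus untreated controls.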

[5] = Organ weights after subcutaneous administration in CD-1 mice (Example 6); format: in vivo; conditions: end of study, 50 mg/kg subcutaneously twice a week for 7 weeks
Procedure: Groups of 8-9 week old male CD-1 mice were injected subcutaneously twice a week for 7 weeks with 50 mg/kg of Ionis oligonucleotides (100 mg/kg/week dose). Each group contained 4 mice. One group of male CD-1 mice was injected subcutaneously twice a week for 7 weeks with PBS. Plasma was collected for analysis on day 28.
Ionis SMAD7 oligonucleotides that caused any changes in organ weights outside the expected range for antisense oligonucleotides were excluded from further studies.

[6] = test system: mouse Smad7 mRNA; assay: Murine Smad7 mRNA expression after oral administration in BALB/c mice (Example 11); format: in vivo; conditions: 500 mg/kg/day oral for 3 weeks, 24 hours after last dose
Procedure: The objective of this study was to evaluate the efficacy of Ionis SMAD7 antisense oligonucleotides in BALB/c mice following daily oral administration. The Ionis oligonucleotides are cross-reactive with mouse Smad7 mRNA.
Groups of BALB/c mice were orally administered 500 mg/kg/day for 3 weeks of human Smad7 oligonucleotides, ION 790615, ION 798781, or ION 830025, or mouse Smad7 oligonucleotide, ION 772797 (a 3-10-3 cEt gapmer with phosphorothioate backbone and sequence […]; designated herein as SEQ ID NO: 2743). One group of mice was orally administered PBS daily for 3 weeks. Each group contained 4 mice.
To evaluate the efficacy of the oligonucleotides, murine Smad7 mRNA expression in the liver, kidneys, duodenum, ileum, and colon was measured using primer probe set RTS1114.

[7] = Hep3B cells, electroporation with 10,000 nM antisense oligonucleotide, SMAD7 mRNA by RT-PCR (RTS5062), relative to untreated control cells
[8] = SMAD7 mRNA, Hep3B cells, 10,000 nM antisense oligonucleotide, electroporation, primer probe set RTS5062, relative to untreated control cells

Row | Substance | Body weight [1] [g] | Heart weight [1] [g] | Kidneys weight [1] [g] | Liver with gallbladder weight [1] [g] | Spleen weight [1] [g] | Basophils [2] [%] | Eosinophils [2] [%] | Hematocrit [2] [%] | Hemoglobin [2] [g/dL] | Lymphocytes [2] [%] | MCH [2] [pg] | MCHC [2] [g/dL] | MCV [2] [fL] | Monocytes [2] [%] | Neutrophils [2] [%] | PLT [2] | RBC [2] | Reticulocytes [2] [%] | WBC [2] | % inhibition of SMAD7 mRNA expression (compared to control), Distal colon [3] [%] | other results
1 | 829994 (GGAGGCAGGGCCGCGA; 3-10-3 cEt gapmer, further chemistry not given here) [compound 829994] | 35 | 0.18 | 0.62 | 2.02 | 0.11 | 0.5 | 1.8 | 44 | 15.3 | 26 | 23.2 | 35.1 | 66 | 6.3 | 65 | 287 ^3/μL | 6.6 ^6/L | 0.9 | 12.5 ^3/μL | 29 | % inhibition of SMAD7 mRNA expression (compared to control), Duodenum [3]: 2%; % inhibition of SMAD7 mRNA expression (compared to control), Ileum [3]: 32%; % inhibition of Smad7 mRNA expression (compared to control), Kidney [3]: 0%; % inhibition of Smad7 mRNA expression (compared to control), Liver [3]: 0%; % inhibition of SMAD7 mRNA expression (compared to control), Proximal colon [3]: 34%; % Inhibition ([4]; SMAD7 mRNA, Hep3B cells, electroporation with 10,000 nM antisense oligonucleotide, primer probe set RTS5062, relative to untreated control cells): 68%; Organ weights, Kidneys [5]: 0.7 g; Organ weights, Liver [5]: 2.6 g; Organ weights, Spleen [5]: 0.3 g
2 | 830121 (AGAATCAAGCCCTGGC; 3-10-3 cEt gapmer, further chemistry not given here) [compound 830121] | 34 | 0.17 | 0.61 | 1.92 | 0.10 | 0.8 | 2.5 | 56 | 18.5 | 30 | 21.7 | 32.9 | 66 | 7.7 | 59 | 249 ^3/μL | 8.5 ^6/L | 0.5 | 8.2 ^3/μL | 21 | % inhibition of SMAD7 mRNA expression (compared to control), Duodenum [3]: 55%; % inhibition of SMAD7 mRNA expression (compared to control), Ileum [3]: 0%; % inhibition of Smad7 mRNA expression (compared to control), Kidney [3]: 39%; % inhibition of Smad7 mRNA expression (compared to control), Liver [3]: 0%; % inhibition of SMAD7 mRNA expression (compared to control), Proximal colon [3]: 20%; % Inhibition [4, 7]: 69%; Organ weights, Kidneys [5]: 0.6 g; Organ weights, Liver [5]: 2.4 g; Organ weights, Spleen [5]: 0.2 g
3 | 798781 (CGTAAGATTCACAGCA; 3-10-3 cEt gapmer, further chemistry not given here) [compound 798781] | 35 | 0.17 | 0.64 | 1.86 | 0.09 | 0.5 | 2.7 | 48 | 16.2 | 34 | 22.3 | 33.6 | 67 | 6.5 | 56 | 191 ^3/μL | 7.3 ^6/L | 0.6 | 7.3 ^3/μL | 34 | Mouse Smad7 mRNA expression (% inhibition), Colon [6]: 0 % inhibition; Mouse Smad7 mRNA expression (% inhibition), Duodenum [6]: 47 % inhibition; Mouse Smad7 mRNA expression (% inhibition), Ileum [6]: 0 % inhibition; Mouse Smad7 mRNA expression (% inhibition), Kidney [6]: 12 % inhibition; Mouse Smad7 mRNA expression (% inhibition), Liver [6]: 0 % inhibition; % inhibition of SMAD7 mRNA expression (compared to control), Duodenum [3]: 0%; % inhibition of SMAD7 mRNA expression (compared to control), Ileum [3]: 0%; % inhibition of Smad7 mRNA expression (compared to control), Kidney [3]: 28%; % inhibition of Smad7 mRNA expression (compared to control), Liver [3]: 0%; % inhibition of SMAD7 mRNA expression (compared to control), Proximal colon [3]: 26%; % Inhibition [4, 7]: 52%; % Inhibition [4, 8]: 69%; Organ weights, Kidneys [5]: 0.6 g; Organ weights, Liver [5]: 2.3 g; Organ weights, Spleen [5]: 0.1 g
4 | 790615 (CCAATGAGAATGCTTC; 3-10-3 cEt gapmer, further chemistry not given here) [compound 790615] | 35 | 0.17 | 0.64 | 1.88 | 0.11 | 0.5 | 2.6 | 45 | 14.5 | 36 | 21.9 | 32.5 | 68 | 7.9 | 53 | 242 ^3/μL | 6.6 ^6/L | 0.7 | 7.1 ^3/μL | 31 | Mouse Smad7 mRNA expression (% inhibition), Colon [6]: 72 % inhibition; Mouse Smad7 mRNA expression (% inhibition), Duodenum [6]: 54 % inhibition; Mouse Smad7 mRNA expression (% inhibition), Ileum [6]: 0 % inhibition; Mouse Smad7 mRNA expression (% inhibition), Kidney [6]: 41 % inhibition; Mouse Smad7 mRNA expression (% inhibition), Liver [6]: 52 % inhibition; % inhibition of SMAD7 mRNA expression (compared to control), Duodenum [3]: 35%; % inhibition of SMAD7 mRNA expression (compared to control), Ileum [3]: 0%; % inhibition of Smad7 mRNA expression (compared to control), Kidney [3]: 37%; % inhibition of Smad7 mRNA expression (compared to control), Liver [3]: 9%; % inhibition of SMAD7 mRNA expression (compared to control), Proximal colon [3]: 41%; % Inhibition ([4]; Hep3B cells, electroporation with 10,000 nM antisense oligonucleotide, primer probe set RTS5062, relative to untreated control cells): 38%; % Inhibition [4, 8]: 40%; Organ weights, Kidneys [5]: 0.6 g; Organ weights, Liver [5]: 2.0 g; Organ weights, Spleen [5]: 0.2 g
5 | 830037 (antisense CTATTGGCTGATCTGG; 3-10-3 cEt gapmer, further chemistry not given here) [compound 830037] | 35 | 0.17 | 0.69 | 1.93 | 0.10 | 0.7 | 2.6 | 52 | 17.5 | 32 | 22.1 | 33.6 | 66 | 8.0 | 57 | 280 ^3/μL | 8.0 ^6/L | 0.3 | 8.5 ^3/μL | 22 | % inhibition of SMAD7 mRNA expression (compared to control), Duodenum [3]: 33%; % inhibition of SMAD7 mRNA expression (compared to control), Ileum [3]: 22%; % inhibition of Smad7 mRNA expression (compared to control), Kidney [3]: 40%; % inhibition of Smad7 mRNA expression (compared to control), Liver [3]: 0%; % inhibition of SMAD7 mRNA expression (compared to control), Proximal colon [3]: 50%; % Inhibition [4, 7]: 67%
